The target of one data set is full length NS3/4a (Hepatitis C virus genotype 1b (isolate BK) (HCV), UniProt P26663). In words: NS3 Protease Assay (Example A), FRET-based. In kind it is biochemical. Put shortly: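 Initial rates were taken from fluorescence progress curves over 30 min at room temperature, and IC50 was fitted across replicates. In-house full-length NS3/4a cleaved a FRET peptide (5-FAMsp/QXL520) from the NS4A/B site. Medium: 50 mM Tris pH8, 20 mM DTT, 1% CHAPS, 10% glycerol, 5% DMSO.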

The nature of data set [1]: Replicon Assay (Example B), Alamar Blue cytotoxicity CC50. In kind it is cell-based. As to conditions: human, lower value of the cell pair. The source says:
(§1) Thus, Huh-7 cells persistently infected with an HCV-RNA construct (Bartenschlager, R. Hepatitis C replicons: potential role for drug development. Nature Rev. Drug Discov. 1, 911-916 (2002)) comprising: 5′ and 3′ non-translated regions (NTR); the non-structural genes NS3 to NS5b; as well as the G418 drug resistance gene, neomycin, (for selection of cells carrying HCV replicon RNA) fused to the firefly Luciferase reporter gene (pFKI3889Iuc-ubi-neo/NS3-3′/ET) were used to determine the cell based antiviral activity of compounds using luciferase activity as an indirect readout of HCV RNA load. In this assay […] huh-7 cells persistently infected with the HCV subgenomic replicon construct above were plated/well in a 96 well tissue culture plate. The cells were allowed to attach overnight in DMEM medium supplemented with 10% FBS 1% NEAA, and 250 μg/ml gentamicin. The following day the medium was replaced with 200 μl/well of fresh medium as described above lacking gentamicin. Semilog dilutions of compounds in medium were then added to triplicate wells (non-edge) of the cultured cells to give a 0.1% DMSO final concentration. Plates were then incubated at 37° C. in an atmosphere of 5% CO2 and air for 72 h. […] The plate was then read at 535 nm (excitation) and 590 nm (emission) on a SpectraMax Gemini reader (Molecular Devices) to determine the number of viable cells by measuring the conversion of rezasurin (Alamar blue) to resorufin in response to mitochondrial activity. In order to determine the antiviral effect of these compounds EC50 values were determined by measuring the luciferase activity of the cells. Alamar blue solution was removed from the wells and replaced with 100 μl/well of medium along with 100 μl/well of Bright-Glo reagent and incubated at room temperature for 5 minutes before transferring 100 μl/well to a white bottom 96 well plate to read in a luminometer as described in the Bright-Glo Luciferase Assay System protocol (promega).
For orientation: In antiviral work, replicon cells carry a viral genome segment that copies itself.

Data set [2] concerns HCV subgenomic replicon in Huh-7 cells. Briefly: Replicon Assay (Example B), luciferase readout EC50. In kind it is cell-based. As to conditions: Hepatitis C virus, Huh-7, replicon assay, luciferase readout; upper value of the cell pair; read-out: Assay B EC50. The protocol: The activities of compounds of the invention against HCV in a cellular environment were analysed using a replicon assay as described below.
as §1

The mark [3] stands for this setting: HCV NS3 protease assay, full length NS3/4a, read-out: Assay A IC50 (μM) average.
Where [4] appears, read: read-out: IC50 against the protease activity of the full length NS3/4a.

Molecules are shown by their SMILES. Where two headings read alike, the source gives them in different places. Where only a bound is given, the exact number is not on record here.

The inhibition is the relative decrease from the control value, in per cent. Low readings indicate a weak effect, high ones a strong effect. Usually CC50 stands for the concentration giving 50% cytotoxicity. Higher therefore signals better tolerance by the cells. One may read the EC50 as the concentration that produces a half-maximal response.

Chain of full length NS3/4a (P26663 1027-1657): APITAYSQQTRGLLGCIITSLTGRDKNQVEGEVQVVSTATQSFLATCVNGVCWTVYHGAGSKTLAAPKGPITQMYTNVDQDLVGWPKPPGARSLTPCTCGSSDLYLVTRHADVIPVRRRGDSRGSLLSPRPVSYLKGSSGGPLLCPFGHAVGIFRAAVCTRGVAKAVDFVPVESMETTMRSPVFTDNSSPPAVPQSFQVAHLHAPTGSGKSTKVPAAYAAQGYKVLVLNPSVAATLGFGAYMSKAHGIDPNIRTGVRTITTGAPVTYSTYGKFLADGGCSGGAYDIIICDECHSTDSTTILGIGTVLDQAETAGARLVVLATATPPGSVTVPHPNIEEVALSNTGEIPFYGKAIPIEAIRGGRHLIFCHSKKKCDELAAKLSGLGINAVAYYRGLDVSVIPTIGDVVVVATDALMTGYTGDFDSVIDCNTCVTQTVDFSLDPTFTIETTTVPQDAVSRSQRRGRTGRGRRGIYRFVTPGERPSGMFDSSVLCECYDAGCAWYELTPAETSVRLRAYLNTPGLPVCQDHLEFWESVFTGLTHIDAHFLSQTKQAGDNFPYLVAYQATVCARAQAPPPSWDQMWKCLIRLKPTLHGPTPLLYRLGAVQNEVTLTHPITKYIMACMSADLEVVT

`Cc1cc(C(=O)c2c(Cl)ccc([C@H](N[C@@H](C)CC(N)=O)C3CC3)c2F)ccc1N` [Example 262, (3S)-3-{[(R)-{3-[(4-amino-3-methylphenyl)carbonyl]-4-chloro-2-fluorophenyl}-(cyclopropyl)-methyl]-amino}butanamide]: the inhibition at 0.1 µM on full length NS3/4a turned out to be 32%. In data set [1], the CC50 at 72 h was over 1000 nM. In addition, the EC50 in data set [2] came out at 8.5 nM.
In the case of `[2H]C([2H])([2H])C([2H])([2H])[C@@H](N[C@@H](C)CC(N)=O)c1ccc(Cl)c(C(=O)c2ccc(N)c(Cl)c2)c1F` [Example 267, (3S)-3-{[(1R)-1-{3-[(4-amino-3-chlorophenyl)carbonyl]-4-chloro-2-fluorophenyl}(2,2,3,3,3-deutero)propyl]amino}-butanamide], the IC50 on full length NS3/4a (setting [3]) is 0.085 µM; on full length NS3/4a (setting [4]) it was under 1 µM. The same molecule had a CC50 at 72 h in data set [1] of over 3000 nM. In addition, the EC50 in data set [2] came to 5 nM.
`CC[C@@H](N[C@@H](C)CC(N)=O)c1ccc(Cl)c(C(=O)c2ccc(C#N)cc2)c1F` [Example 91, (3S)-3-{[(1R)-1-{4-chloro-3-[(4-cyanophenyl)carbonyl]-2-fluorophenyl}propyl]amino}-butanamide]: on full length NS3/4a (setting [3]), the IC50 stood at 0.066 µM. In data set [1], this molecule came in with a CC50 at 72 h of over 10000 nM. Also, in data set [2], the EC50 was determined as 1.2 nM.
For the molecule `C[C@@H](CC(N)=O)N[C@@H](c1ccc(Cl)c(C(=O)c2ccc(CO)cc2)c1F)C1CC1` [Example 263, (3S)-3-{[(R)-(4-chloro-2-fluoro-3-{[4-(hydroxyl-methyl)phenyl]-carbonyl}phenyl)(cyclo-propyl)-methyl]amino}-butanamide], on full length NS3/4a (setting [3]), the IC50 is 0.11 µM. Also, in data set [1], the midpoint of cytotoxicity, the CC50 at 72 h, lay at 79000 nM. In data set [2], the EC50 came to 4 nM.
The corresponding values for `C[C@@H](CC(N)=O)N[C@@H](c1ccc(Cl)c(C(=O)c2ccc(N)c(C#N)c2)c1F)C1CC1` [Example 255, (3S)-3-{[(R)-{3-[(4-amino-3-cyanophenyl)carbonyl]-4-chloro-2-fluorophenyl}(cyclopropyl)methyl]amino}butanamide] are 0.24 µM, over 1000 nM and 27 nM.
In the same order, the values of `CC[C@@H](NC(C)(C)CC(N)=O)c1ccc(Cl)c(C(=O)c2ccc(N)nc2)c1F` [Example 250, 3-{[(1R)-1-{3-[(6-aminopyridin-3-yl)carbonyl]-4-chloro-2-fluorophenyl}propyl]amino}-3-methylbutanamide] are 0.095 µM, over 1000 nM and 29 nM.
For `CC[C@@H](N[C@@H](C)CC(N)=O)c1ccc(Cl)c(C(=O)c2ccc3c(c2)OCC(=O)N3)c1F` [Example 247, (3S)-3-{[(1R)-1-{4-chloro-2-fluoro-3-[(3-oxo-3,4-dihydro-2H-1,4-benzoxazin-7-yl)carbonyl]phenyl}propyl]amino}butanamide], the IC50 on full length NS3/4a (setting [3]) is 0.29 µM; on full length NS3/4a (setting [4]), under 1 µM. Also, in data set [1], the CC50 at 72 h is over 1000 nM. In data set [2], the EC50 stood at 21 nM.
As for `CC[C@@H](CC(N)=O)N[C@H](CC)c1ccc(Cl)c(C(=O)c2ccc(N)nc2)c1F` [Example 225, (3S)-3-{[(1R)-1-{3-[(6-aminopyridin-3-yl)carbonyl]-4-chloro-2-fluorophenyl}propyl]amino} pentanamide], at full length NS3/4a (setting [3]), the IC50 turned out to be 0.35 µM. Also, the CC50 at 72 h in data set [1] was over 3000 nM. In addition, in data set [2], the EC50 was found to be 28 nM.
`[2H]C([2H])([2H])C([2H])([2H])[C@@H](N[C@@H](C)CC(N)=O)c1ccc(Cl)c(C(=O)c2ccccc2)c1F` [Example 115, (3S)-3-{[(1R)-1-(3-benzoyl-4-chloro-2-fluorophenyl)(2,2,3,3,3-D)propyl]amino}-butanamide]: the inhibition at 0.1 µM against full length NS3/4a turned out to be 59%. The CC50 at 72 h in data set [1] is over 3000 nM. Also, the EC50 in data set [2] worked out at 4.1 nM.
Turning to `C[C@@H](CC(N)=O)N[C@@H](c1ccc(Cl)c(C(=O)c2ccc(N)c(Cl)c2)c1F)C1CC1` [Example 261, (3S)-3-{[(R)-{3-[(4-amino-3-chlorophenyl)carbonyl]-4-chloro-2-fluorophenyl}(cyclopropyl)methyl]amino}butanamide], the IC50 at full length NS3/4a (setting [3]) is 0.16 µM; on full length NS3/4a (setting [4]), under 1 µM. This molecule also came in with a CC50 at 72 h in data set [1] of over 1000 nM. Further, in data set [2], the EC50 stood at 9.1 nM.
`CC[C@@H](N[C@@H](C)CC(N)=O)c1ccc(Cl)c(C(=O)c2ccc(F)cc2)c1F` [Example 97, (3S)-3-{[(1R)-1-{4-chloro-2-fluoro-3-[(4-fluorophenyl)-carbonyl]-phenyl}propyl]-amino}-butanamide]: the IC50 at full length NS3/4a (setting [3]) was found to be 0.047 µM. Further, the CC50 at 72 h in data set [1] is over 3000 nM. In addition, in data set [2], the EC50 was 19 nM.
Regarding `CC[C@@H](N[C@@H](C)CC(N)=O)c1ccc(Cl)c(C(=O)c2ccc(O)cc2)c1F` [Example 230, (3S)-3-{[(1R)-1-{4-chloro-2-fluoro-3-[(4-hydroxyphenyl)carbonyl]phenyl}propyl]amino} butanamide], the IC50 was 0.55 µM on full length NS3/4a (setting [3]) and under 1 µM on full length NS3/4a (setting [4]). In data set [1], the CC50 at 72 h was over 3000 nM. Besides, the 50% effective concentration (EC50) in data set [2] is 37 nM.
On to `CC[C@@H](N[C@@H](C)CC(N)=O)c1ccc(Cl)c(C(=O)c2ccc(-n3cc(CO)cn3)nc2)c1F` [Example 159, (3S)-3-{[(1R)-1-[4-chloro-2-fluoro-3-({6-[4-(hydroxymethyl)-1H-pyrazol-1-yl]pyridin-3-yl}carbonyl)phenyl]-propyl]amino}-butanamide], for which, on full length NS3/4a (setting [3]), the IC50 came out at 0.24 µM. For the same molecule, the CC50 at 72 h in data set [1] was over 10000 nM. The EC50 in data set [2] is 100 nM.
On to `C[C@@H](CC(N)=O)N[C@@H](c1ccc(Cl)c(C(=O)c2cccnc2)c1F)C1CC1` [Example 119, (3S)-3-{[(R)-{4-chloro-2-fluoro-3-[(pyridin-3-yl)carbonyl]phenyl} (cyclopropyl)methyl]amino}-butanamide], for which the IC50 is 0.12 µM at full length NS3/4a (setting [3]) and under 1 µM at full length NS3/4a (setting [4]). The molecule further registered a CC50 at 72 h in data set [1] of over 3000 nM. In addition, the EC50 in data set [2] was 71 nM.
For the molecule `CC[C@@H](N[C@@H](C)CC(N)=O)c1ccc(Cl)c(C(=O)c2cc(C)c(N)cn2)c1F` [Example 239, (3S)-3-{[(1R)-1-{3-[(5-amino-4-methylpyridin-2-yl)carbonyl]-4-chloro-2-fluorophenyl}propyl]amino} butanamide], the IC50 at full length NS3/4a (setting [3]) worked out at 0.5 µM. Moreover, the CC50 at 72 h in data set [1] was over 1000 nM. Besides, the EC50 in data set [2] was determined as 38 nM.
In the same order, the values of `CC[C@@H](N[C@@H](C)CC(N)=O)c1ccc(Cl)c(C(=O)c2ccc(=O)[nH]c2)c1F` [Example 147, (3S)-3-{[(1R)-1-{4-chloro-2-fluoro-3-[(6-oxo-1,6-dihydropyridin-3-yl)carbonyl]-phenyl}propyl]amino}-butanamide] are 0.39 µM, over 10000 nM and 2100 nM.
Molecule `CC[C@@H](N[C@@H](C)CC(=O)NCCN)c1ccc(Cl)c(C(=O)c2ccccc2)c1F` [Example 88, (3S)-N-(2-aminoethyl)-3-{[(1R)-1-(3-benzoyl-4-chloro-2-fluorophenyl)propyl]-amino}butanamide] showed an inhibition at 0.01 µM against full length NS3/4a (@ 0.01 uM) of 52%. Moreover, the CC50 at 72 h in data set [1] was over 3000 nM. Moreover, the EC50 in data set [2] was determined as 45 nM.
For the molecule `CCC(NC(C)(C)CO)c1ccc(Cl)c(C(=O)c2ccccc2)c1F` (centres unmarked) [Example 179, 2-{[1-(3-benzoyl-4-chloro-2-fluorophenyl)-propyl]amino}-2-methylpropan-1-ol], the IC50 on full length NS3/4a (setting [3]) was found to be 0.063 µM. In addition, the CC50 at 72 h in data set [1] is over 3000 nM. The EC50 in data set [2] came out at 300 nM.

Source of the values: patent US9145354B2, “Pharmaceutical compounds” (priority 2011, dated 2015).
